For seven molecules, MIC and antifungal activity ranking results are on record in patent US20180360791A1, “FATTY ACID MONOGLYCERIDE COMPOSITIONS” (Stiefel Laboratories, Inc., priority 2009, published 2018).

SMILES strings stand for the structures. Values after ≈ are worked out from the molar mass of the structure shown. Counter-ions that a name gives are not always drawn.

The subject of the first experiment is Trichophyton rubrum. In words: Liquid broth assay (MIC). The format is cell-based. Conditions: Trichophyton rubrum, 672 h; liquid (broth) culture, incubated up to 4 weeks; one value without distinguishing the two dermatophytes; read-out: minimal inhibitory concentration (MIC). Here is the method:
(§1) The minimum inhibitory concentration (MIC) of various test agents were tested in a standard protocol against two dermatophytes: Trichophyton rubrum and Trichophyton mentagrophyles:
(§2) Trichophyton rubrum and Trichophyton mentagrophytes were grown on potato dextrose agar (PDA) at 30° C. for 1-5 weeks. One clone was picked randomly and grown in sabouraud dextrose broth (SDB) to a density of 1×10^6 colony forming units (cfu) per ml. Various concentrations of test agents were added to the dermatophyte cultures and incubated for up to 4 weeks. Each week, an aliquot of the liquid culture was taken and placed on a PDA plate, and incubated for up to 3 weeks to assess growth. The plates were examined and photographed each week. Cultures were considered positive when more than 2 colonies were found per plate.
For the molecule `CCCCCCCCCC(=O)OCC(O)CO` (racemic) [1-monocaprin, 1-decanoyl-rac-glycerol], the MIC is 250 µg/mL (≈ 1010 µM).
`CCCCc1ccc(C(=O)O)nc1` [Fusaric acid, fusaric Acid]: the MIC is 500 µg/mL (≈ 2790 µM).
For the molecule `CN(C/C=C/C#CC(C)(C)C)Cc1cccc2ccccc12` [Terbinafine, terbinafine HCl], the MIC is < 3.9 µg/mL.
Still for that read-out and setting: then `Cc1cc(C2CCCCC2)n(O)c(=O)c1` [ciclopirox], with 31.3 µg/mL (≈ 151 µM).
Take `Clc1ccc(COC(Cn2ccnc2)c2ccc(Cl)cc2Cl)cc1` (stereo not drawn) [econazole, econazole Nitrate]: the MIC was < 3.9 µg/mL.

The experiment is the same for the next values; noted with them: liquid broth assay; rank 1 = most active; same ranking for both dermatophytes.
As to `CCCCCCCCCC(=O)OCC(O)CO` (racemic) [1-monocaprin, 1-decanoyl-rac-glycerol], the antifungal activity ranking was found to be 5.
`CCCCc1ccc(C(=O)O)nc1` [Fusaric acid, fusaric Acid] had an antifungal activity ranking of 6.
For the molecule `CN(C/C=C/C#CC(C)(C)C)Cc1cccc2ccccc12` [Terbinafine, terbinafine HCl], the antifungal activity ranking is given as 1.
`Cc1cc(C2CCCCC2)n(O)c(=O)c1` [ciclopirox] returned an antifungal activity ranking of 4.
The same measure, in the same setting: then `Clc1ccc(COC(Cn2ccnc2)c2ccc(Cl)cc2Cl)cc1` (stereo not drawn) [econazole, econazole Nitrate], with 1; and `CC(=O)N1CCN(c2ccc(OCC3COC(Cn4ccnc4)(c4ccc(Cl)cc4Cl)O3)cc2)CC1` (stereo not drawn) [ketoconazole], with 3; and `Clc1ccc(C(Cn2ccnc2)OCc2ccsc2Cl)c(Cl)c1` (stereo not drawn) [tioconazole], with 2.

The subject of another experiment is Trichophyton mentagrophytes. Briefly: Liquid broth assay (MIC). The note with it: Trichophyton mentagrophytes, 672 h; liquid (broth) culture, incubated up to 4 weeks; one value without distinguishing the two dermatophytes; read-out: minimal inhibitory concentration (MIC). Format: cell-based. Here is the method:
as §1, §2
Turning to `CCCCCCCCCC(=O)OCC(O)CO` (racemic) [1-monocaprin, 1-decanoyl-rac-glycerol], the MIC was determined as 250 µg/mL (≈ 1010 µM).
For `CCCCc1ccc(C(=O)O)nc1` [Fusaric acid, fusaric Acid], the MIC was determined as 500 µg/mL (≈ 2790 µM).
For `CN(C/C=C/C#CC(C)(C)C)Cc1cccc2ccccc12` [Terbinafine, terbinafine HCl], the MIC is < 3.9 µg/mL.
With `Cc1cc(C2CCCCC2)n(O)c(=O)c1` [ciclopirox], the MIC came out at 31.3 µg/mL (≈ 151 µM).
Still for that read-out and setting: with `Clc1ccc(COC(Cn2ccnc2)c2ccc(Cl)cc2Cl)cc1` (stereo not drawn) [econazole, econazole Nitrate] the figure was < 3.9 µg/mL.

The experiment is the same for the next values; noted with them: liquid broth assay; rank 1 = most active; same ranking for both dermatophytes.
Regarding `CCCCCCCCCC(=O)OCC(O)CO` (racemic) [1-monocaprin, 1-decanoyl-rac-glycerol], the antifungal activity ranking came to 5.
Take `CCCCc1ccc(C(=O)O)nc1` [Fusaric acid, fusaric Acid]: the antifungal activity ranking stood at 6.
Regarding `CN(C/C=C/C#CC(C)(C)C)Cc1cccc2ccccc12` [Terbinafine, terbinafine HCl], the antifungal activity ranking stood at 1.
On the same count and under the same terms, then `Cc1cc(C2CCCCC2)n(O)c(=O)c1` [ciclopirox], with 4; and `Clc1ccc(COC(Cn2ccnc2)c2ccc(Cl)cc2Cl)cc1` (stereo not drawn) [econazole, econazole Nitrate], with 1.
In turn, `CC(=O)N1CCN(c2ccc(OCC3COC(Cn4ccnc4)(c4ccc(Cl)cc4Cl)O3)cc2)CC1` (stereo not drawn) [ketoconazole] gave an antifungal activity ranking of 3.
Molecule `Clc1ccc(C(Cn2ccnc2)OCc2ccsc2Cl)c(Cl)c1` (stereo not drawn) [tioconazole] displayed an antifungal activity ranking of 2.
